Experimental data: patent US20260157378A1, “PROCESS FOR THE PREPARATION OF COMPOSITIONS BASED ON AMINO ACIDS AND PEPTIDES OF ANIMAL ORIGIN AND IODINE, COMPOSITIONS THUS OBTAINED AND USE THEREOF” (SICIT GROUP S.P.A., priority 2022, published 2026)

Columns and labels:
[1] = test system: lettuce plants (Lactuca sativa L.) var. Sant'Anna; assay: Application of the iodine formulation by root application (hydroponic nutritive solution), iodine content by optical emission spectrometry; assay type: in vivo; details: 36 μg I/L of nutritive solution, harvested after 15 days, lettuce aerial part
Protocol: (§1) The seeds of the selected species were germinated within germination trays filled with a growth substrate composed by vernalized black peat and blond sphagnum peat (Agrofino Professional) and placed in a growth chamber.
(§2) The germinated seedlings were grown until the 2nd real leaf stage. Later, the growth substrate portion wherein the roots were confined was extracted and a gentle washing was carried out in order to remove the whole substrate and thus obtain a free root seedling ready to be placed in hydroponics, for the test of root application. The plants were transplanted in 0.35 L pots for the foliar application test.
The plants were grown in recipients containing 5 L of nutritive solution added with iodine salts obtained according to Example 1, or with the nutritive solution added with the formulation object of the patent. In both treatments, the applied iodine amount was the same: 36 μg I/L of nutritive solution. The plants were then grown in controlled conditions in a growth chamber: • 07.00-12.00: T 24° C., RH 60%, Light Int. 300 μmol/m^2/s; • 12.00-16.00: T 25° C., RH 60%, Light Int. 400 μmol/m^2/s; • 16.00-20.00: T 24° C., RH 60%, Light Int. 300 μmol/m^2/s; • 20.00-07.00: T 23° C., RH 60%, Light Int. 0 μmol/m^2/s.
After 15 days the plants were harvested and the aerial part was weighted. Each plant was washed with deionized water and dried in oven at 105° C. overnight. […]

[2] = test system: lettuce plants (Lactuca sativa L.) var. Sant'Anna; assay: Application of the iodine formulation by foliar application (foliar spray), iodine content by optical emission spectrometry; assay type: in vivo; details: foliar spray at transplantation and after 7 days, 30 μg iodine/plant, harvested after 15 days, lettuce aerial part
Protocol: as §1, §2
The plants were grown for 15 days in 0.35 L pots, containing universal topsoil based on vernalized black peat and blond sphagnum, in controlled conditions in a growth chamber: • 07.00-12.00: T 24° C., RH (Relative humidity) 60%, Light Int. 300 μmol/m^2/s; • 12.00-16.00: T 25° C., RH 60%, Light Int. 400 μmol/m^2/s; • 16.00-20.00: T 24° C., RH r 60%, Light Int. 300 μmol/m^2/s; • 20.00-07.00: T 23° C., RH 60%, Light Int. 0 μmol/m^2/s.
The formulations (iodine salts and formulation object of the invention) were applied during transplantation and after 7 days, by foliar spray, delivering 5 ml of applicative solution according to Example 1 to each plant. In both treatments, the applied iodine amount was the same: 30 μg/plant. […]

For `[I-].[K+]` [KI salt, potassium iodide], the iodine absorption efficiency [1] was 46%, the “iodine content in the food” value [1] was 55 μg/100 g fresh weight and the iodine absorption efficiency [2] was 40%. The “iodine content in the food” value [2] was 36 μg/100 g fresh weight.
